Earlier results in patent US20230096856A1, “COMBINED TREATMENT REGIMEN OF […]/SEDATION WITH ADMINISTRATION OF P[…] ASSOCIATED WITH REDUCTION IN NEUROP[…]” (priority 2021, published 2023).

Columns and labels:
sigma-1 receptors [1] = tested on: sigma-1 receptors
tinnitus = conditions: single dose, mice
Sigma-1 receptors [2] = molecular target: Sigma-1 receptors (Homo sapiens, UniProt Q99720); conditions: receptors that modulate immune responses in human monocyte-derived dendritic cells
[3] = tested on: ventral dentate gyrus of the hippocampus; conditions: single dose
[4] = tested on: hallucinogenic experience; conditions: in vivo
[5] = tested on: extracellular glutamate levels; conditions: rat models
BDNF = conditions: rats exposed to psychological stress
[6] = tested on: gamma-aminobutyric acid type A receptors; conditions: acutely
AMPA receptor = conditions: sub-anesthetic dose, animal studies
[7] = tested on: N-methyl-D-aspartate (NMDA) receptors
5-HT2A receptors = 5-HT2A receptors (Homo sapiens, UniProt P28223)
Chain of 5-HT2A receptors (P28223 whole entry): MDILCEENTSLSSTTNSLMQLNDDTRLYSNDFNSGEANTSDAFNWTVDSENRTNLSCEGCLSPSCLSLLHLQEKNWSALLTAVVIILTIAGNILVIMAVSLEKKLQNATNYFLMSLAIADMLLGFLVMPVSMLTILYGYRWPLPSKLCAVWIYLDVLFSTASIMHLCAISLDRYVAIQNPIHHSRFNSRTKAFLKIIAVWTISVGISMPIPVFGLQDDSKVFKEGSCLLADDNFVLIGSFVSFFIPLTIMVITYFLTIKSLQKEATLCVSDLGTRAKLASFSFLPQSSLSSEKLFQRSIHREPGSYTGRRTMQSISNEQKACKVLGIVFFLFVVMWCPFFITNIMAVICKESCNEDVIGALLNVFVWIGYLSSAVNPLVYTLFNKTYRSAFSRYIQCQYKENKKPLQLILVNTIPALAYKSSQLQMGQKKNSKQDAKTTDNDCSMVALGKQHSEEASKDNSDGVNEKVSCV

Chain of Sigma-1 receptors (Q99720 whole entry): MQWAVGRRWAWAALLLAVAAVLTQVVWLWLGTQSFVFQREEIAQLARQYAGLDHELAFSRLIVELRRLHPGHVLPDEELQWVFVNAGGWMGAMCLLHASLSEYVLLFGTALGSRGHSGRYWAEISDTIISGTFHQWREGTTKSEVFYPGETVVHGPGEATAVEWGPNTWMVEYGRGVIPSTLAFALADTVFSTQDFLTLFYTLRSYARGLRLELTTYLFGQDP

## COc1ccc2[nH]cc(CCN(C)C)c2c1 [5-MeO-DMT, 5-5-Methoxy-N,N-dimethyltryptamine]
sigma-1 receptors [1]
  IFNc and GM-CSF expression: suppressing
  secretion level of anti-inflammatory interleukin 10 cytokine: increase the secretion level
tinnitus
  tinnitus: can be reduced
Sigma-1 receptors [2]
  affinity for Sigma-1 receptors: functionally significant affinity
Human cerebral organoids
  mGluR5 regulation: downregulation of mGluR5
  neural plasticity and anti-inflammatory activity: potentiation of neural plasticity and elevated anti-inflammatory activity
[3]
  cell proliferation and neuronal survivability in the ventral dentate gyrus of the hippocampus: stimulates cell proliferation and neuronal survivability
[3]; adult mice
  neurogenesis in the ventral dentate gyrus: enhances neurogenesis
[4]
  duration of acute hallucinogenic state: 5 to 20 min
  duration of hallucinogenic experience: 10 to 20 min
Phospholipase A2 (PLA2)
  PLA2 activation: differentially strong phospholipase A2 (PLA2) activation

## CNC1(c2ccccc2Cl)CCCCC1=O (stereo not drawn) [ketamine]
[5]
  extracellular glutamate levels in prefrontal-limbic circuitry: increases extracellular glutamate levels

## O=C(c1ccc(F)cc1)C1CCN(CCn2c(=O)[nH]c3ccccc3c2=O)CC1 [ketanserin]
BDNF
  BDNF mRNA: reducing the presence BDNF mRNA
  immunoreactivity indicative of BDNF presence in brain areas: inhibits BDNF immunoreactivity

## CC(C)c1cccc(C(C)C)c1O [propofol]
[6]
  LTP induction: inhibits long term potentiation (LTP) induction
AMPA receptor
  expression of AMPA pGluR1: increase the expression of AMPA pGluR1 in dose-dependent manner
  speed and degree of glutamate-induced desensitization of the AMPA receptor in neurons: can decrease
depression; EEG suppression ratio
  time after induction until desired SR>80% was reached: About five
depression; after approximately four sessions (1 week), asymptote at approximately 7 sessions (two weeks)
  QIDS-SR scale scores: significant reduction
depression; after eye opening
  average recovery time until oriented to time and place: 5 to 10 min
depression; in vivo
  cognitive side effects common for ECT (short term memory loss): do not occur
  effect on efficacy of ECT in treating depression: does not diminish the efficacy
  period within which severity of self-report symptoms of moderate to severe depression is reduced: 1-2 weeks
  time to state of unconsciousness upon induction: one
[7]
  inhibition of NMDA receptors: does not induce inhibition

## COC(=O)[C@@H]1C[C@H](OC(C)=O)C(=O)[C@H]2[C@@]1(C)CC[C@H]1C(=O)O[C@H](c3ccoc3)C[C@]21C [salvinorin A]
5-HT2A receptors
  interaction with 5-HT2A receptors: interact minimally, indirectly, or not at all

## ibogaine
5-HT2A receptors
  interaction with 5-HT2A receptors: interact minimally, indirectly, or not at all
